Reference: ChEMBL document CHEMBL1146467, “A new phloroglucinol derivative from the brown alga Eisenia bicyclis: potential for the effective treatment of diabetic complications” (J Nat Prod, 2004)

Tests used:
[1] = Inhibition of advanced glycation end product formation assessed as CML level at 1 mM after 7 days in 0.1 M phosphate buffer at pH 7.4 by ELISA relative to control; format: physicochemical; conditions: pH 7.4, 168 h, 1000 µM
[2] = Inhibition of alpha-amylase at 1 mM after 15 mins by dinitrosalicylic acid method relative to control

Oc1cc(O)cc(Oc2c(O)cc(O)c3c2Oc2c(O)cc(O)cc2O3)c1 [ECKOL]
inhibition (INH) [1]: 96.2% | inhibition [2]: 87.5%

Oc1cc(O)cc(Oc2c(O)cc(O)c3c2Oc2c(O)cc(Oc4c(O)cc(Oc5c(O)cc(O)c6c5Oc5c(O)cc(O)cc5O6)cc4O)cc2O3)c1 [DIECKOL]
inhibition (INH) [1]: 86.7% | inhibition [2]: 97.5%

N=C(N)NN [PIMAGEDINE]
inhibition (INH) [1]: 76%
